In patent publication US5270339A, “Phenoxybenzene derivative” (Kanagafuchi Kagaku Kogyo Kabushiki Kaisha, priority 1991, dated 1993):

Assays:
[1] = Acute toxicity test, oral; format: in vivo, ddY male mice; details: mouse, in vivo, ddY mice, 2 weeks observation
Experimental: With respect to the compounds 1 to 86 shown in Table 1 as test compounds, the acute toxicity was examined using ddY mice according to the following method.
In each group, six male ddY mice weighing 27 to 30 g were employed. The compounds 1 to 86 suspended in an aqueous solution of 0.5% sodium carboxymethylcellulose were administered orally in a volume of 0.1 ml/10 g body weight. […] The LD50 (mg/kg) values were estimated from the ratio of the number of dead mice to the number of mice used.

[2] = test system: experimental amnesia in mice induced by cycloheximide; test: Anti-amnesic effect: passive avoidance task (step-through), cycloheximide-induced amnesia; format: in vivo, ddY male mice; details: for Step-through latency: mean of group; for responders at 3 mg/kg / responders at 1 mg/kg: Mus musculus, mice with latency > 100 seconds, read-out: Ratio of memory
Experimental: As experimental animals, Wistar male rats and ddY male mice were used for the tests after they were housed for a week under every 12 hours' dark-light cycle at room temperature of 24° to 26° C.
The effect on experimental amnesia in mice induced by cycloheximide was evaluated.
The experiment was carried out using an experimental apparatus of passive avoidance task for mice (made by Ohara-ika-sangyo K. K.) comprising a box divided into the two compartments of dark and light. That is, the dark compartment [a box having a reverse trapezoid cross section (height: 8 cm, base line: 5 cm, oblique line: 9.5 cm) and having the length of 14 cm] was shield from a light with a black plastic case and was floored with stainless grids for giving an electrical shock so that an electricity might be turned on a determined time after interception of a photobeam placed in the dark compartment. The light compartment made of transparent plastic (a box of the same shape as that of the dark compartment having the length of 16 cm, lightened from a location spaced 25 cm above by a 60 W electric lamp) was provided adjacent to the dark compartment. Between the two compartments, there was provided a circular entrance having the diameter of 3 cm with a guillotine door which could be opened and closed. By using the above-mentioned dark-light box, the experiment was carried out according to the following procedure.
A mouse (5 week-old) previously conditioned in the dark-light box was put in the light compartment and the guillotine door was opened. Three seconds after the mouse moved into the dark compartment and interrupted the photobeam, 0.3 mA electrical shock was given to limbs for 3 seconds from the floor grid (aquisition trial). Just after the mouse rushed into the light compartment, the door was shut and the […] in the light compartment was picked out to return to his home cage. After 24 hours, the mouse was placed again in the light compartment and the period from the opening of the guillotine door to the time the mouse completely entered the dark compartment was recorded maximally 300 seconds as a step-through latency (retention trial).
The amnesia was induced by subcutaneous injection of cycloheximide (120 mg/kg) dissolved in saline 10 minutes before the aquisition trial. As a control, the same amount of saline alone was administered. […]
A ratio of number of mice showing the step-through latency of more than 100 seconds in the group was defined as a ratio of memory for convenience's sake.
The step-through latency in Table 2 was the mean value for each treated group.

| SMILES | LD50 at 336 h [1] | Step-through latency ([2]; 3 mg/kg oral) | responders at 3 mg/kg ([2]; 3 mg/kg oral) | Step-through latency ([2]; 1 mg/kg oral) | responders at 1 mg/kg ([2]; 1 mg/kg oral) |
| --- | --- | --- | --- | --- | --- |
| O=C1NCCC1=Cc1ccc(Oc2ccccc2)c([N+](=O)[O-])c1 [Compound 7] | ≥ 500 mg/kg | 113 s | 50% | – | – |
| CC1CC(=Cc2cccc(Oc3ccccc3)c2)C(=O)N1 (stereo not drawn) [Compound 52] | ≥ 500 mg/kg | 120 s | 50% | – | – |
| O=C1NCCC1=Cc1ccc(Oc2ccccc2)cc1 [Compound 2] | ≥ 500 mg/kg | 188 s | 75% | – | – |
| CCN1CC(C)C(=Cc2cccc(Oc3ccccc3)c2)C1=O (stereo not drawn) [Compound 61] | ≥ 500 mg/kg | – | – | 90 s | 50% |
| CCCCCCN1CCC(=Cc2cccc(Oc3ccccc3)c2)C1=O [Compound 13] | ≥ 500 mg/kg | 132 s | 38% | – | – |
| Nc1cc(C=C2CCNC2=O)ccc1Oc1ccccc1 [Compound 8] | ≥ 500 mg/kg | 118 s | 38% | – | – |
| CCC1C(=Cc2cccc(Oc3ccccc3)c2)CCN1C(C)=O (stereo not drawn) [Compound 80] | ≥ 500 mg/kg | – | – | 100 s | 50% |
| CCN1C(=O)C(=Cc2cccc(Oc3ccccc3)c2)CC1C (stereo not drawn) [Compound 53] | ≥ 500 mg/kg | 114 s | 50% | – | – |
| CN(C)CCNC(=O)CN1CCC(=Cc2cccc(Oc3ccccc3)c2)C1=O [Compound 36] | ≥ 500 mg/kg | – | – | 163 s | 75% |
| CN1CCC(=Cc2cccc(Oc3ccccc3)c2)C1=O [Compound 9] | ≥ 500 mg/kg | 151 s | 75% | – | – |
| N#CCN1CCC(=Cc2cccc(Oc3ccccc3)c2)C1=O [Compound 37] | ≥ 500 mg/kg | – | – | 110 s | 50% |
| COc1ccc(CN2CCC(=Cc3cccc(Oc4ccccc4)c3)C2=O)cc1 [Compound 49] | ≥ 500 mg/kg | – | – | 102 s | 50% |
| CCN1CCC(Cc2cccc(Oc3ccccc3)c2)C1=O (stereo not drawn) [Compound 82] | ≥ 500 mg/kg | 102 s | 38% | – | – |
| O=C1C(=Cc2cccc(Oc3ccccc3)c2)CCN1Cc1ccccc1 [Compound 48] | ≥ 500 mg/kg | 117 s | 63% | – | – |
| C=CCN1CCC(=Cc2cccc(Oc3ccccc3)c2)C1 [Compound 69] | ≥ 500 mg/kg | – | – | 102 s | 50% |
| O=C1NCCC1=Cc1cccc(Oc2ccc(Cl)cc2)c1 [Compound 6] | ≥ 500 mg/kg | 101 s | 31% | – | – |
| CCN1CCC(=Cc2ccc(Oc3ccccc3)cc2)C1=O [Compound 14] | ≥ 500 mg/kg | 100 s | 25% | – | – |
| OCCN1CCC(=Cc2cccc(Oc3ccccc3)c2)C1 [Compound 71] | ≥ 500 mg/kg | – | – | 212 s | 75% |
| COc1ccc(Oc2cccc(C=C3CCNC3=O)c2)cc1 [Compound 5] | ≥ 500 mg/kg | 134 s | 50% | – | – |
| O=C1C(=Cc2cccc(Oc3ccccc3)c2)CCN1CCOC1CCCCO1 (stereo not drawn) [Compound 24] | ≥ 500 mg/kg | 109 s | 38% | – | – |

| SMILES | LD50 at 336 h [1] | Step-through latency ([2]; 3 mg/kg oral) | responders at 3 mg/kg ([2]; 3 mg/kg oral) | Step-through latency ([2]; 1 mg/kg oral) | responders at 1 mg/kg ([2]; 1 mg/kg oral) |
| --- | --- | --- | --- | --- | --- |
| O=C1C(=Cc2cccc(Oc3ccccc3)c2)CCN1Cc1ccc(Cl)cc1 [Compound 50] | ≥ 500 mg/kg | 100 s | 50% | – | – |
| COc1ccc(C(=O)N2CCC(=Cc3cccc(Oc4ccccc4)c3)C2=O)cc1 [Compound 43] | ≥ 500 mg/kg | 179 s | 100% | – | – |
| O=C1C(=Cc2cccc(Oc3ccccc3)c2)CCN1c1ccccc1 [Compound 46] | ≥ 500 mg/kg | 172 s | 75% | – | – |
| S=C1NCCC1=Cc1cccc(Oc2ccccc2)c1 [Compound 86] | ≥ 500 mg/kg | 70 s | 25% | – | – |
| O=C1C(=Cc2cccc(Oc3ccccc3)c2)CCN1C(=O)c1ccccc1 [Compound 42] | ≥ 500 mg/kg | – | – | 80 s | 25% |
| CCC1C(=Cc2cccc(Oc3ccccc3)c2)CCN1CC (stereo not drawn) [Compound 78] | ≥ 500 mg/kg | – | – | 132 s | 75% |
| CCOC1CC(=Cc2cccc(Oc3ccccc3)c2)C(=O)N1 (stereo not drawn) [Compound 56] | ≥ 500 mg/kg | 129 s | 63% | – | – |
| O=C1NCCC1=Cc1ccccc1Oc1ccccc1 [Compound 3] | ≥ 500 mg/kg | 173 s | 75% | – | – |
| O=C1NC(CO)CC1=Cc1cccc(Oc2ccccc2)c1 (stereo not drawn) [Compound 58] | ≥ 500 mg/kg | – | – | 111 s | 50% |
| CN(C)N1CCC(=Cc2cccc(Oc3ccccc3)c2)C1=O [Compound 38] | ≥ 500 mg/kg | – | – | 100 s | 50% |
| NC(=O)N1CCC(=Cc2cccc(Oc3ccccc3)c2)C1 [Compound 73] | ≥ 500 mg/kg | – | – | 119 s | 50% |
| COC1CC(=Cc2cccc(Oc3ccccc3)c2)C(=O)N1 (stereo not drawn) [Compound 55] | ≥ 500 mg/kg | 80 s | 25% | – | – |
| CCOC1CC(=Cc2cccc(Oc3ccccc3)c2)C(=O)N1CC (stereo not drawn) [Compound 57] | ≥ 500 mg/kg | 157 s | 50% | – | – |
| CC(=O)N1CCC(=Cc2cccc(Oc3ccccc3)c2)C1=O [Compound 41] | ≥ 500 mg/kg | 80 s | 25% | – | – |
| CC(=O)N1CCC(=Cc2cccc(Oc3ccccc3)c2)C1 [Compound 74] | ≥ 500 mg/kg | – | – | 107 s | 50% |
| O=C(C=Cc1ccccc1)N1CCC(=Cc2cccc(Oc3ccccc3)c2)C1=O [Compound 44] | ≥ 500 mg/kg | 132 s | 38% | – | – |
| CCOC(=O)CN1CCC(=Cc2cccc(Oc3ccccc3)c2)C1=O [Compound 28] | ≥ 500 mg/kg | 100 s | 50% | – | – |
| C(=C1CCN(C2CC2)C1)c1cccc(Oc2ccccc2)c1 [Compound 85] | ≥ 500 mg/kg | – | – | 97 s | 25% |
| CN(C)C(=O)CN1CCC(=Cc2cccc(Oc3ccccc3)c2)C1=O [Compound 35] | ≥ 500 mg/kg | – | – | 103 s | 50% |
